Results: BigSolDB 2.1

O=C(O)/C=C/c1ccccc1Cl
Details | solubility (mole fraction)
in 2-butanone, 272.15 K | 0.00431
in 2-butanone, 278.45 K | 0.00535
in 2-butanone, 283.35 K | 0.00626
in 2-butanone, 288.35 K | 0.00733
in 2-butanone, 292.75 K | 0.00837
in 2-butanone, 297.75 K | 0.00968
in 2-butanone, 302.55 K | 0.0111
in 2-butanone, 307.05 K | 0.0126
in 2-butanone, 312.35 K | 0.0145
in 2-butanone, 317.05 K | 0.0164
in 2-butanone, 321.45 K | 0.0183
in 2-pentanone, 272.15 K | 0.00424
in 2-pentanone, 278.45 K | 0.00526
in 2-pentanone, 283.35 K | 0.00618
in 2-pentanone, 288.35 K | 0.00723
in 2-pentanone, 292.75 K | 0.00827
in 2-pentanone, 297.75 K | 0.0096
in 2-pentanone, 302.55 K | 0.011
in 2-pentanone, 307.05 K | 0.0125
in 2-pentanone, 312.35 K | 0.0144
in 2-pentanone, 317.05 K | 0.0163
in 2-pentanone, 321.45 K | 0.0182
in acetone, 272.15 K | 0.00376
in acetone, 278.45 K | 0.00474
in acetone, 283.35 K | 0.00563
in acetone, 288.35 K | 0.00668
in acetone, 292.75 K | 0.00771
in acetone, 297.75 K | 0.00907
in acetone, 302.55 K | 0.0105
in acetone, 307.05 K | 0.012
in acetone, 312.35 K | 0.014
in acetone, 317.05 K | 0.016
in acetone, 321.45 K | 0.0181
in acetonitrile, 272.15 K | 0.000253
in acetonitrile, 278.45 K | 0.000362
in acetonitrile, 283.35 K | 0.000474
in acetonitrile, 288.35 K | 0.000617
in acetonitrile, 292.75 K | 0.000773
in acetonitrile, 297.75 K | 0.000994
in acetonitrile, 302.55 K | 0.00125
in acetonitrile, 307.05 K | 0.00154
in acetonitrile, 312.35 K | 0.00195
in acetonitrile, 317.05 K | 0.0024
in acetonitrile, 321.45 K | 0.00289
in ethanol, 272.15 K | 0.00229
in ethanol, 278.45 K | 0.00295
in ethanol, 283.45 K | 0.0036
in ethanol, 288.35 K | 0.00431
in ethanol, 292.85 K | 0.00508
in ethanol, 298.15 K | 0.00614
in ethanol, 302.95 K | 0.00722
in ethanol, 307.35 K | 0.00833
in ethanol, 312.05 K | 0.00969
in ethanol, 316.55 K | 0.0112
in ethanol, 321.55 K | 0.013
in ethyl acetate, 272.15 K | 0.00231
in ethyl acetate, 278.45 K | 0.00294
in ethyl acetate, 283.35 K | 0.00351
in ethyl acetate, 288.35 K | 0.00417
in ethyl acetate, 292.75 K | 0.00484
in ethyl acetate, 297.75 K | 0.00571
in ethyl acetate, 302.55 K | 0.00665
in ethyl acetate, 307.05 K | 0.00764
in ethyl acetate, 312.35 K | 0.00894
in ethyl acetate, 317.05 K | 0.0102
in ethyl acetate, 321.45 K | 0.0116
in ethyl formate, 272.15 K | 0.000925
in ethyl formate, 278.45 K | 0.00124
in ethyl formate, 283.35 K | 0.00155
in ethyl formate, 288.35 K | 0.00193
in ethyl formate, 292.75 K | 0.00232
in ethyl formate, 297.75 K | 0.00285
in ethyl formate, 302.55 K | 0.00345
in ethyl formate, 307.05 K | 0.0041
in ethyl formate, 312.35 K | 0.00497
in ethyl formate, 317.05 K | 0.0059
in ethyl formate, 321.45 K | 0.00688
in isobutanol, 272.15 K | 0.0013
in isobutanol, 278.45 K | 0.00167
in isobutanol, 283.45 K | 0.00211
in isobutanol, 288.35 K | 0.00266
in isobutanol, 292.85 K | 0.00324
in isobutanol, 298.15 K | 0.00403
in isobutanol, 302.95 K | 0.00489
in isobutanol, 307.35 K | 0.00591
in isobutanol, 312.05 K | 0.00724
in isobutanol, 316.55 K | 0.00855
in isobutanol, 321.55 K | 0.0106
in isopentanol, 272.15 K | 0.00208
in isopentanol, 278.45 K | 0.00259
in isopentanol, 283.45 K | 0.00322
in isopentanol, 288.35 K | 0.00396
in isopentanol, 292.85 K | 0.00475
in isopentanol, 298.15 K | 0.0058
in isopentanol, 302.95 K | 0.00691
in isopentanol, 307.35 K | 0.00821
in isopentanol, 312.05 K | 0.00988
in isopentanol, 316.55 K | 0.0115
in isopentanol, 321.55 K | 0.014
in isopropanol, 272.15 K | 0.00181
in isopropanol, 278.45 K | 0.00245
in isopropanol, 283.45 K | 0.00309
in isopropanol, 288.35 K | 0.00385
in isopropanol, 292.85 K | 0.00468
in isopropanol, 298.15 K | 0.00585
in isopropanol, 302.95 K | 0.00712
in isopropanol, 307.35 K | 0.00848
in isopropanol, 312.05 K | 0.0101
in isopropanol, 316.55 K | 0.012
in isopropanol, 321.55 K | 0.0144
in methanol, 272.15 K | 0.00174
in methanol, 278.45 K | 0.00224
in methanol, 283.45 K | 0.00273
in methanol, 288.35 K | 0.00328
in methanol, 292.85 K | 0.00387
in methanol, 298.15 K | 0.00465
in methanol, 302.95 K | 0.00549
in methanol, 307.35 K | 0.0064
in methanol, 312.05 K | 0.00739
in methanol, 316.55 K | 0.00857
in methanol, 321.55 K | 0.01
in methyl acetate, 272.15 K | 0.00189
in methyl acetate, 278.45 K | 0.00244
in methyl acetate, 283.35 K | 0.00296
in methyl acetate, 288.35 K | 0.00358
in methyl acetate, 292.75 K | 0.00422
in methyl acetate, 297.75 K | 0.00505
in methyl acetate, 302.55 K | 0.00596
in methyl acetate, 307.05 K | 0.00694
in methyl acetate, 312.35 K | 0.00823
in methyl acetate, 317.05 K | 0.00956
in methyl acetate, 321.45 K | 0.0109
in n-butanol, 272.15 K | 0.00231
in n-butanol, 278.45 K | 0.00288
in n-butanol, 283.45 K | 0.00356
in n-butanol, 288.35 K | 0.00438
in n-butanol, 292.85 K | 0.00522
in n-butanol, 298.15 K | 0.00636
in n-butanol, 302.95 K | 0.00757
in n-butanol, 307.35 K | 0.00895
in n-butanol, 312.05 K | 0.0107
in n-butanol, 316.55 K | 0.0124
in n-butanol, 321.55 K | 0.0151
in n-pentanol, 272.15 K | 0.00268
in n-pentanol, 278.45 K | 0.0033
in n-pentanol, 283.45 K | 0.00404
in n-pentanol, 288.35 K | 0.00491
in n-pentanol, 292.85 K | 0.00583
in n-pentanol, 298.15 K | 0.00704
in n-pentanol, 302.95 K | 0.00832
in n-pentanol, 307.35 K | 0.00977
in n-pentanol, 312.05 K | 0.0116
in n-pentanol, 316.55 K | 0.0134
in n-pentanol, 321.55 K | 0.0162
in n-propanol, 272.15 K | 0.00202
in n-propanol, 278.45 K | 0.00267
in n-propanol, 283.45 K | 0.00332
in n-propanol, 288.35 K | 0.00408
in n-propanol, 292.85 K | 0.0049
in n-propanol, 298.15 K | 0.00602
in n-propanol, 302.95 K | 0.00723
in n-propanol, 307.35 K | 0.00848
in n-propanol, 312.05 K | 0.01
in n-propanol, 316.55 K | 0.0117
in n-propanol, 321.55 K | 0.0139
in toluene, 272.15 K | 0.000149
in toluene, 278.45 K | 0.000225
in toluene, 283.35 K | 0.000307
in toluene, 288.35 K | 0.000415
in toluene, 292.75 K | 0.000538
in toluene, 297.75 K | 0.000716
in toluene, 302.55 K | 0.000932
in toluene, 307.05 K | 0.00119
in toluene, 312.35 K | 0.00156
in toluene, 317.05 K | 0.00197
in toluene, 321.45 K | 0.00246
